Measurements from the supplement of paper PMC8671470.
Structures can show the parent of a compound that is named as a salt.

How the values were obtained:
Settings in all cases: 72 h
[1] = system: KCL-22; assay: cell viability (% survival relative to DMSO control, bortezomib = 0%); higher = less cytotoxic
How it was run: (§1)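 Fifteen myeloid leukaemia cell lines (10 AML, 5 CML) were seeded at a density titrated to the linear growth range. They went into 384-well plates with compounds pre-printed at 1, 10, 100, 1000 or 10000 nM in duplicate. After 72 h at 37 °C with 5% CO2, viability was read by CellTiter-Glo luminescence. Values are percent survival, with vehicle set to 100% and a 10 µM positive control to 0%, averaged over the duplicates.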

[2] = system: K-562; assay: as above
How it was run: as §1

[3] = system: LAMA-84; assay: as above
How it was run: as §1

[4] = system: MV4-11; assay: as above
How it was run: as §1

[5] = system: MOLM-13; assay: as above
How it was run: as §1

[6] = system: HL-60; assay: as above
How it was run: as §1

[7] = system: SHI-1; assay: as above
How it was run: as §1

[8] = system: KG-1; assay: as above
How it was run: as §1

[9] = system: ML-2; assay: as above
How it was run: as §1

[10] = system: HEL; assay: as above
How it was run: as §1

[11] = system: BV-173; assay: as above
How it was run: as §1

[12] = system: KCL-22
How it was run: (§2)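 For the IC50, dose–response curves were fitted with a log-logistic model. The data came from fifteen myeloid leukaemia cell lines grown in RPMI 1640 at densities in the linear growth range and incubated in 384-well plates for 72 h at 37 °C under 5% CO2. Doses were five tenfold steps from 1 to 10,000 nM in duplicate, and luminescent ATP viability was normalised to vehicle and to a positive control at 10 µM before four-parameter fitting.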

[13] = system: NOMO-1
How it was run: as §2

[14] = system: K-562
How it was run: as §2

[15] = system: LAMA-84
How it was run: as §2

[16] = system: KU-812
How it was run: as §2

[17] = system: THP-1
How it was run: as §2

[18] = system: MV4-11
How it was run: as §2

[19] = system: MOLM-13
How it was run: as §2

[20] = system: Mono-Mac-6
How it was run: as §2

[21] = system: HL-60
How it was run: as §2

[22] = system: SHI-1
How it was run: as §2

[23] = system: KG-1
How it was run: as §2

[24] = system: ML-2
How it was run: as §2

[25] = system: HEL
How it was run: as §2

[26] = system: BV-173
How it was run: as §2

[27] = system: HL-60; assay: cell viability (% survival relative to DMSO control); higher = less cytotoxic
How it was run: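 Four-parameter log-logistic fits in drc and PharmacoGx supplied area under the curve where it is given. Underlying viability came from CellTiter-Glo, normalised to DMSO and proteasome-inhibitor wells, with the proteasome inhibitor at 10 μM. HL-60 cells in RPMI 1640 plus 10% FBS had been rescreened against the full library at five tenfold concentrations of 1–10,000 nM, in duplicate on 384-well plates, with DMSO or 100 nM of one of three metabolic inhibitors, for 72 h at 37 °C, 5% CO2.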

O=C(Oc1cccc(F)c1OC(=O)c1cccc(O)c1)c1cccc(O)c1 [WZB117]
cell viability [%]
Settings	1 nM	10 nM	100 nM	1000 nM	10000 nM
[1]	101	91.4	92	110	70.6
[2]	96.2	101	102	106	79.1
[3]	97.9	98.6	92.4	95.1	101
[4]	106	85.9	97	88.2	25.4
[5]	92.2	125	94.7	94	44.8
[6]	102	98	93.3	104	48
[7]	95.8	95.6	102	103	72.5
[8]	113	95.7	87.6	90.4	30.7
[9]	102	104	98.7	98.8	25.5
[10]	107	110	95.2	99.8	72.7
[11]	96	104	90.5	98.8	15.4

Settings	IC50 (cell viability) [µM]
[12]	> 10
[13]	> 10
[14]	> 10
[15]	> 10
[16]	3.88
[17]	> 10
[18]	2.93
[19]	8.47
[20]	4.74
[21]	9.7
[22]	> 10
[23]	5.35
[24]	5.89
[25]	> 10
[26]	4.56

cell viability [%], [27]
Settings	0.001 µM	0.01 µM	0.1 µM	1 µM	10 µM
co-treatment: AZD3965 100 nM	102.1	97.3	103.1	101.6	68.9
co-treatment: DMSO vehicle	103	98.8	99	101	73.3
co-treatment: GSK2194069 100 nM	102	91.2	95.2	99.8	84.6
co-treatment: pictilisib 100 nM	111	100	96.8	97.1	70.9

CC(C)(Cc1ccccc1)NCC(O)c1ccc(O)c(NS(C)(=O)=O)c1 (stereo not given) [Zinterol hydrochloride]
cell viability [%]
Settings	1 nM	10 nM	100 nM	1000 nM	10000 nM
[1]	96.1	99.4	98.2	103	95.6
[2]	92.5	107	99.9	107	111
[3]	106	99.1	112	96.6	101
[4]	89.7	79.9	84.5	74.3	88.4
[5]	90.9	86.8	82.3	90.7	98
[6]	107	113	85	87.7	112
[7]	111	112	103	110	120
[8]	118	94.5	99.6	87.9	102
[9]	95.4	93.3	93	93.9	103
[10]	77.8	101	103	110	93.5
[11]	113	93.6	106	87	121

Settings	IC50 (cell viability) [µM]
[12]	> 10
[13]	> 10
[14]	> 10
[15]	> 10
[16]	> 10
[17]	> 10
[18]	> 10
[19]	> 10
[20]	0.0976
[21]	> 10
[22]	> 10
[23]	> 10
[24]	> 10
[25]	> 10
[26]	> 10

cell viability [%], [27]
Settings	0.001 µM	0.01 µM	0.1 µM	1 µM	10 µM
co-treatment: AZD3965 100 nM	99.4	83.1	101	93.8	95.4
co-treatment: DMSO vehicle	99.8	91.6	99.8	102	95.5
co-treatment: GSK2194069 100 nM	97.9	100	95.1	101	94.64
co-treatment: pictilisib 100 nM	85.5	91.4	86.6	90.4	72.6
